Measurements: patent US20250275959A1, “COMPOUNDS AND METHODS OF THEIR USE” (LEXICON PHARMACEUTICALS, INC., priority 2024, published 2025)

molecular target: hACSL5 (Homo sapiens (Human), UniProt Q9ULC5); assay: Human ACSL5 coupled enzyme Amplex Red assay; assay type: biochemical; conditions: read-out: hACSL5 IC50
Protocol: Human ACSL5 (33-683) was cloned with a C-terminal 6 His tag and expressed in insect cells (sf9) as per standard insect cell expression protocols. Human ACSL5 was enriched by affinity nickel affinity chromatography followed by Superdex S200 gel filtration column equilibrated in 20 mM HEPES pH 7.8, 500 mM NaCl, 1 mM TCEP, 5% glycerol, 0.1% Triton X^100.
Inhibition of ACSL5 enzyme activity was monitored with a coupled enzyme Amplex Red assay.
The assay is carried out in 384-well microtiterplates. In a total volume of […], compounds are preincubated with 20 nM ACSL5, in a buffer containing 150 mM MOPS-NaOH, 12 mM MgCl2, 0.03% (v/v) Triton X-100, 2.79 U mL-1 Peroxidase and 24 U mL-1 Acyl-CoA Oxidase (pH 7.6). The reaction is started by the addition of substrate and co factors (25 μM oleate, 30 μM CoA, 1 mM ATP and 50 μM Amplex Red) and the fluorescence detected after 10 minutes at 25° C. with a fluorescence reader (BMG-Fluostar; BMG-Technologies) using an excitation wavelength of 535 nm and an emission wavelength of 590 nm.
Concentration-response titration points for each compound tested were filled to the Hill equation yielding concentrations of half maximal inhibition […] and maximal inhibition values.

Chain of hACSL5 (Q9ULC5 33-683): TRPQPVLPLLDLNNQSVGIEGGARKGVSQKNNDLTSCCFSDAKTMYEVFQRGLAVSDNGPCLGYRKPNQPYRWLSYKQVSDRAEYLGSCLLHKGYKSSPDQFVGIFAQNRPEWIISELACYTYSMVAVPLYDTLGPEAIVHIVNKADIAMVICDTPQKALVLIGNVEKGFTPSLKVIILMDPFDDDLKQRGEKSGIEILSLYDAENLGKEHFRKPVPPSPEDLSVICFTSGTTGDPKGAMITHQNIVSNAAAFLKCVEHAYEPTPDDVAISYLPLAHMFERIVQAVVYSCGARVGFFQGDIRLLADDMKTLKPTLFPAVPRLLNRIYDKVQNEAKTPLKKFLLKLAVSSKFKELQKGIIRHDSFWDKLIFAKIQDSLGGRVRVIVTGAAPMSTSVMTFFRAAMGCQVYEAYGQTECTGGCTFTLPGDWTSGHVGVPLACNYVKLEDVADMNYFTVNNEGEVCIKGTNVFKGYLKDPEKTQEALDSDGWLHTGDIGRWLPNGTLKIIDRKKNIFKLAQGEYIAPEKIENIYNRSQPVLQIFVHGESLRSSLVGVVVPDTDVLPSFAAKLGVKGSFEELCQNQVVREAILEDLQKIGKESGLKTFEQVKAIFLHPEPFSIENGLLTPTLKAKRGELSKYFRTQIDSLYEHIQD

Compound | IC50 [nM]
CC[C@@H](Oc1ccc(C(=O)NS(=O)(=O)N2CCC(OC3CN(C)C3)CC2)c(F)c1F)c1ccc(OCC2CC2)cn1 [(R)-4-(1-(5-(cyclopropylmethoxy)pyridin-2-yl)propoxy)-2,3-difluoro-N-((4-((1-methylazetidin-3-yl)oxy)piperidin-1-yl)sulfonyl)benzamide] | 100 to 500
CC[C@@H](Oc1ccc(C(=O)NS(=O)(=O)N2CC3=C(CN(C)C3)C2)c(F)c1F)c1ccc(OCC2CC2)cn1 [(R)-4-(1-(5-(cyclopropylmethoxy)pyridin-2-yl)propoxy)-2,3-difluoro-N-((5-methyl-3,4,5,6-tetrahydropyrrolo[3,4-c]pyrrol-2(1H)-yl)sulfonyl)benzamide] | 100 to 500
CC[C@@H](Oc1ccc(C(=O)NS(=O)(=O)N2CC3(CN(C)C3)C2)c(F)c1F)c1ccc(OCC2CC2)cn1 [(R)-4-(1-(5-(cyclopropylmethoxy)pyridin-2-yl)propoxy)-2,3-difluoro-N-((6-methyl-2,6-diazaspiro[3.3]heptan-2-yl)sulfonyl)benzamide] | 100 to 500
CC[C@@H](Oc1ccc(C(=O)NS(=O)(=O)N2CCC(OCCN(C)C)CC2)c(F)c1F)c1ccc(OCCOC)cn1 [(R)-N-((4-(2-(dimethylamino)ethoxy)piperidin-1-yl)sulfonyl)-2,3-difluoro-4-(1-(5-(2-methoxyethoxy)pyridin-2-yl)propoxy)benzamide] | > 500
CC(Oc1ccc(C(=O)NS(=O)(=O)CCN)c(Cl)c1Cl)c1cccc(Oc2ccccc2)c1 (stereo not shown) [N-((2-aminoethyl)sulfonyl)-2,3-dichloro-4-(1-(3-phenoxyphenyl)ethoxy)benzamide] | 100 to 500
CC(Oc1ccc(C(=O)NS(=O)(=O)CCCN2CCOCC2)cc1C(F)(F)F)c1ccc(Oc2cccnn2)cn1 (stereo not shown) [N-((3-morpholinopropyl)sulfonyl)-4-(1-(5-(pyridazin-3-yloxy)pyridin-2-yl)ethoxy)-3-(trifluoromethyl)benzamide] | 100 to 500
NCCc1ccc(S(=O)(=O)NC(=O)c2ccc(OCc3cccc(Oc4ccccc4)c3)c(F)c2F)cc1 [N-((4-(2-aminoethyl)phenyl)sulfonyl)-2,3-difluoro-4-((3-phenoxybenzyl)oxy)benzamide] | 100 to 500
CN(C)Cc1ccc(S(=O)(=O)NC(=O)c2ccc(OCc3cccc(Oc4ccccc4)c3)c(F)c2F)cc1 [N-((4-((dimethylamino)methyl)phenyl)sulfonyl)-2,3-difluoro-4-((3-phenoxybenzyl)oxy)benzamide] | 100 to 500
CC(COc1ccc(C(=O)NS(=O)(=O)c2ccc(CN)cc2)c(Cl)c1Cl)c1cccc(Oc2ccccc2)c1 (stereo not shown) [N-((4-(aminomethyl)phenyl)sulfonyl)-2,3-dichloro-4-(2-(3-phenoxyphenyl)propoxy)benzamide] | 100 to 500
NCc1ccc(S(=O)(=O)NC(=O)c2ccc(OCc3cccc(Oc4ccccc4)c3)c(Cl)c2Cl)cc1 [N-((4-(aminomethyl)phenyl)sulfonyl)-2,3-dichloro-4-((3-phenoxybenzyl)oxy)benzamide] | < 100
CC(Oc1ccc(C(=O)NS(=O)(=O)c2ccc(CN)cc2)c(F)c1F)c1cccc(Oc2cccnc2)c1 (stereo not shown) [N-((4-(aminomethyl)phenyl)sulfonyl)-2,3-difluoro-4-(1-(3-(pyridin-3-yloxy)phenyl)ethoxy)benzamide] | < 100
CC(Oc1ccc(C(=O)NS(=O)(=O)c2ccc(CN)cc2)c(F)c1F)c1cccc(Oc2ccccc2)c1 (stereo not shown) [N-((4-(aminomethyl)phenyl)sulfonyl)-2,3-difluoro-4-(1-(3-phenoxyphenyl)ethoxy)benzamide] | < 100
NCc1ccc(S(=O)(=O)NC(=O)c2ccc(OCc3ccc(Oc4ccccc4)cc3)c(F)c2F)cc1 [N-((4-(aminomethyl)phenyl)sulfonyl)-2,3-difluoro-4-((4-phenoxybenzyl)oxy)benzamide] | > 500
CC(Oc1ccc(C(=O)NS(=O)(=O)c2ccc(CN)cc2)cc1C(F)(F)F)c1cccc(Oc2cnn(C)c2)c1 (stereo not shown) [N-((4-(aminomethyl)phenyl)sulfonyl)-4-(1-(3-((1-methyl-1H-pyrazol-4-yl)oxy)phenyl)ethoxy)-3-(trifluoromethyl)benzamide] | > 500
CCCC(C)COc1cccc(C(C)Oc2ccc(C(=O)NS(=O)(=O)c3ccc(CN)cc3)cc2C(F)(F)F)c1 (stereo not shown) [N-((4-(aminomethyl)phenyl)sulfonyl)-4-(1-(3-((2-methylpentyl)oxy)phenyl)ethoxy)-3-(trifluoromethyl)benzamide] | > 500
CC(Oc1ccc(C(=O)NS(=O)(=O)c2ccc(CN)cc2)cc1C(F)(F)F)c1cccc(OCC2CCCC2)c1 (stereo not shown) [N-((4-(aminomethyl)phenyl)sulfonyl)-4-(1-(3-(cyclopentylmethoxy)phenyl)ethoxy)-3-(trifluoromethyl)benzamide] | > 500
CC(Oc1ccc(C(=O)NS(=O)(=O)c2ccc(CN)cc2)c(F)c1F)c1cccc(OC2CCCC2)c1 (stereo not shown) [N-((4-(aminomethyl)phenyl)sulfonyl)-4-(1-(3-(cyclopentyloxy)phenyl)ethoxy)-2,3-difluorobenzamide] | 100 to 500
CC(Oc1ccc(C(=O)NS(=O)(=O)c2ccc(CN)cc2)cc1C(F)(F)F)c1cccc(OC2CCCC2)c1 (stereo not shown) [N-((4-(aminomethyl)phenyl)sulfonyl)-4-(1-(3-(cyclopentyloxy)phenyl)ethoxy)-3-(trifluoromethyl)benzamide] | > 500
CCCCCOc1cccc(C(C)Oc2ccc(C(=O)NS(=O)(=O)c3ccc(CN)cc3)cc2C(F)(F)F)c1 (stereo not shown) [N-((4-(aminomethyl)phenyl)sulfonyl)-4-(1-(3-(pentyloxy)phenyl)ethoxy)-3-(trifluoromethyl)benzamide] | 100 to 500
CC(Oc1ccc(C(=O)NS(=O)(=O)c2ccc(CN)cc2)cc1C(F)(F)F)c1cccc(Oc2cnccn2)c1 (stereo not shown) [N-((4-(aminomethyl)phenyl)sulfonyl)-4-(1-(3-(pyrazin-2-yloxy)phenyl)ethoxy)-3-(trifluoromethyl)benzamide] | < 100
CC(Oc1ccc(C(=O)NS(=O)(=O)c2ccc(CN)cc2)cc1C(F)(F)F)c1cccc(Oc2ccccn2)c1 (stereo not shown) [N-((4-(aminomethyl)phenyl)sulfonyl)-4-(1-(3-(pyridin-2-yloxy)phenyl)ethoxy)-3-(trifluoromethyl)benzamide] | < 100
CC(Oc1ccc(C(=O)NS(=O)(=O)c2ccc(CN)cc2)cc1C(F)(F)F)c1cccc(Oc2cccnc2)c1 (stereo not shown) [N-((4-(aminomethyl)phenyl)sulfonyl)-4-(1-(3-(pyridin-3-yloxy)phenyl)ethoxy)-3-(trifluoromethyl)benzamide] | < 100
CC(Oc1ccc(C(=O)NS(=O)(=O)c2ccc(CN)cc2)cc1C(F)(F)F)c1cccc(Oc2cncnc2)c1 (stereo not shown) [N-((4-(aminomethyl)phenyl)sulfonyl)-4-(1-(3-(pyrimidin-5-yloxy)phenyl)ethoxy)-3-(trifluoromethyl)benzamide] | 100 to 500
CC(Oc1ccc(C(=O)NS(=O)(=O)c2ccc(CN)cc2)cc1C(F)(F)F)c1cccc(Oc2ccsc2)c1 (stereo not shown) [N-((4-(aminomethyl)phenyl)sulfonyl)-4-(1-(3-(thiophen-3-yloxy)phenyl)ethoxy)-3-(trifluoromethyl)benzamide] | < 100
CC(COc1ccc(C(=O)NS(=O)(=O)c2ccc(CN)cc2)cc1C(F)(F)F)c1cccc(Oc2ccccc2)c1 (stereo not shown) [N-((4-(aminomethyl)phenyl)sulfonyl)-4-(2-(3-phenoxyphenyl)propoxy)-3-(trifluoromethyl)benzamide] | 100 to 500
NCc1ccc(S(=O)(=O)NC(=O)c2ccc(OCC3CCCC3)c(C(F)(F)F)c2)cc1 [N-((4-(aminomethyl)phenyl)sulfonyl)-4-(cyclopentylmethoxy)-3-(trifluoromethyl)benzamide] | > 500
CC[C@@H](Oc1ccc(C(=O)NS(=O)(=O)N2CCN(CC)CC2)c(F)c1F)c1ccc(OC2CC(OC)C2)cn1 (stereo partly drawn) [N-((4-ethylpiperazin-1-yl)sulfonyl)-2,3-difluoro-4-((R)-1-(5-((1R,3R)-3-methoxycyclobutoxy)pyridin-2-yl)propoxy)benzamide] | 100 to 500
CC[C@@H](Oc1ccc(C(=O)NS(=O)(=O)N2CCN(CC)CC2)cc1C(F)(F)F)c1ccc(OC2CC(OC)C2)cn1 (stereo partly drawn) [N-((4-ethylpiperazin-1-yl)sulfonyl)-4-((R)-1-(5-((1R,3R)-3-methoxycyclobutoxy)pyridin-2-yl)propoxy)-3-(trifluoromethyl)benzamide] | 100 to 500
